Laboratory results as given in patent US20110060017A1, “NOVEL 1,2,3-TRIAZOLE DERIVATIVES USEFUL AS MODULATORS OF NICOTINIC ACETYLCHOLINE RECEPTORS” (Neurosearch A/S, priority 2008, published 2011).

Experiments:
[1] = target: T1, wild-type nAChR α7 receptors (Homo sapiens, UniProt P36544); assay: Positive modulation of acetylcholine-induced nAChR α7 currents in Xenopus laevis oocytes (two-electrode voltage clamp); format: cell-based
T1 construct: expressed in transfected cells; host or cells: Xenopus laevis oocytes
Experimental: In this example the positive modulation of wild-type nAChR α7 receptors by Compound 4 (i.e. 4-[5-Amino-4-(2,4-dichloro-phenyl)-[1,2,3]triazol-1-ylmethyl]phenol; FIGS. 1A and 1B) was determined using nAChR α7 receptors heterologously expressed in Xenopus laevis oocytes.
The electrical current through the nAChR α7 channel was measured using conventional two-electrode voltage clamp and nAChR α7 currents were activated by applying pulses of agonist-containing solution onto the nAChR α7 expressing oocyte.
In brief, the oocytes were placed in a recording chambers and continuously super-fused with an Oocyte Ringer (OR) solution containing 90 mM NaCl, 2.5 mM KCl, 2.5 mM CaCl2, 1 mM MgCl2 and 5 mM HEPES (pH adjusted to 7.4). The oocytes were clamped at −60 mV and currents were induced by applying 20 s pulses of 100 μM acetylcholine dissolved in OR. The intervals between the acetylcholine applications were 5 minutes, during which the oocytes were washed with OR. The first three applications were control applications to insure a constant response level of 100 μM acetylcholine.
The positive modulation in the presence of Compound 4 was calculated as (test-control)/control*100% and the concentration response curve for this positive modulation was fitted to the sigmoidal logistic equation: I=Imax/(1+(EC50/[compound])^n), where Imax represents the maximal modulation of the control response, EC50 is the concentration causing a half maximal response, and n is the slope coefficient.

T1 sequence (P36544 23-502): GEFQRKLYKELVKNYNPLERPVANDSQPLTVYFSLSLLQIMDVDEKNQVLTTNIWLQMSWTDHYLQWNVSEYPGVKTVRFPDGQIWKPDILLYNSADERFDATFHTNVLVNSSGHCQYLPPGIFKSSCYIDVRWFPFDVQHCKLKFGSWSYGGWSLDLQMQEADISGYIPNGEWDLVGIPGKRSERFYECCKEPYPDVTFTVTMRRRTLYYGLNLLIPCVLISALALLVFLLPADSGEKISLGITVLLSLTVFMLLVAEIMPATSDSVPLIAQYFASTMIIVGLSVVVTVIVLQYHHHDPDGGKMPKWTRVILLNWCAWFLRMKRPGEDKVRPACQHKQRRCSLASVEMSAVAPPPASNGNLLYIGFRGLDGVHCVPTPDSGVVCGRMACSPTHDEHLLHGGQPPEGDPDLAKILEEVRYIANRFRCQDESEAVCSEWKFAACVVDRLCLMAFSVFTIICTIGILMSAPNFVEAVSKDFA

| Compound | melting point [°C] | Imax, maximal modulation of the acetylcholine response ([1]; 100 μM acetylcholine, (test-control)/control*100%, Xenopus laevis oocytes, 0.01-31.6 μM compound) [%] | EC50 ([1]; 100 μM acetylcholine, nAChR α7 expressed in Xenopus laevis oocytes, clamped at −60 mV, 0.01-31.6 μM compound, read-out: EC50 for positive modulation of acetylcholine responses) [µM] | effect on acetylcholine-induced current amplitude ([1]; 0.01-31.6 μM compound applied 30 s before and during 100 μM acetylcholine) |
| --- | --- | --- | --- | --- |
| Nc1c(-c2ccc(C(F)(F)F)cc2F)nnn1Cc1ccc(S(N)(=O)=O)cc1 [Compound 5, 4-[5-Amino-4-(2-fluoro-4-trifluoromethyl-phenyl)-[1,2,3]-triazol-1-ylmethyl]-benzenesulfonamide] | 180.1 to 181.3 | – | – | – |
| COc1ccc(Cn2nnc(-c3ccc(C(F)(F)F)cc3F)c2N)cc1 [Compound 7, 5-(2-Fluoro-4-trifluoromethyl-phenyl)-3-(4-methoxy-benzyl)-3H-[1,2,3]-triazol-4-ylamine] | 153.2 to 154.4 | – | – | – |
| Nc1c(-c2ccc(C(F)(F)F)cc2F)nnn1Cc1ccc(O)cc1 [Compound 8, 4-[5-Amino-4-(2-fluoro-4-trifluoromethyl-phenyl)-[1,2,3]-triazol-1-ylmethyl]-phenol] | 168.2 to 169.5 | – | – | – |
| COc1ccc(-c2nnn(Cc3ccc(Cl)cc3Cl)c2N)cc1 [Compound 2, 3-(2,4-Dichloro-benzyl)-5-(4-methoxy-phenyl)-3H-[1,2,3]-triazol-4-ylamine] | 156.5 to 159 | – | – | – |

Further lines, results first:

| melting point [°C] | Imax, maximal modulation of the acetylcholine response ([1]; 100 μM acetylcholine, (test-control)/control*100%, Xenopus laevis oocytes, 0.01-31.6 μM compound) [%] | EC50 ([1]; 100 μM acetylcholine, nAChR α7 expressed in Xenopus laevis oocytes, clamped at −60 mV, 0.01-31.6 μM compound, read-out: EC50 for positive modulation of acetylcholine responses) [µM] | effect on acetylcholine-induced current amplitude ([1]; 0.01-31.6 μM compound applied 30 s before and during 100 μM acetylcholine) | Compound |
| --- | --- | --- | --- | --- |
| 134.4 to 136.8 | – | – | – | COc1ccc(Cn2nnc(-c3ccc(Cl)cc3Cl)c2N)cc1 [Compound 1, 5-(2,4-Dichloro-phenyl)-3-(4-methoxy-benzyl)-3H-[1,2,3]triazol-4-ylamine] |
| 204 to 205.6 | – | – | – | Nc1c(-c2ccc(Cl)cc2Cl)nnn1Cc1ccc(S(N)(=O)=O)cc1 [Compound 6, 4-[5-Amino-4-(2,4-dichloro-phenyl)-[1,2,3]-triazol-1-ylmethyl]-benzenesulfonamide] |
| 172.5 to 174.1 | 277 | 1.1 | robust increase | Nc1c(-c2ccc(Cl)cc2Cl)nnn1Cc1ccc(O)cc1 [Compound 4, 4-[5-Amino-4-(2,4-dichloro-phenyl)-[1,2,3]triazol-1-ylmethyl]-phenol] |
